Measurements from patent publication US20040185460A1, “Novel mixed lineage kinase (7) (mlk7) polypeptide polynucleotides encoding the same and methods of use thereof” (priority 2001, published 2004).

Test system: baculoviral human GST-MLK7KD and GST-MLK7KD/LZ
Conditions: data not shown; shows requirement for metal ions (Mg+2)

## O=C(O)CN(CCN(CC(=O)O)CC(=O)O)CC(=O)O [EDTA]
  activities of GST-MLK7KD and GST-MLK7KD/LZ: inhibited
